Assay results reported in patent publication US12514859B2, “Pyrazole pyrimidine derivative and uses thereof” (Yissum Research Development Company of the Hebrew …, priority 2015, dated 2026).

Experiments:
[1] = biological target: T1, IRAK1 (Homo sapiens, UniProt P51617); assay: Kd measurements for the interaction with IRAK1; assay type: binding
T1 construct: RKO cells were incubated for 16 hours at 37° C. with the indicated concentrations of compounds; endogenous in cells; host or cells: RKO cells, stimulated with TNFα
T1 sequence (P51617 whole entry): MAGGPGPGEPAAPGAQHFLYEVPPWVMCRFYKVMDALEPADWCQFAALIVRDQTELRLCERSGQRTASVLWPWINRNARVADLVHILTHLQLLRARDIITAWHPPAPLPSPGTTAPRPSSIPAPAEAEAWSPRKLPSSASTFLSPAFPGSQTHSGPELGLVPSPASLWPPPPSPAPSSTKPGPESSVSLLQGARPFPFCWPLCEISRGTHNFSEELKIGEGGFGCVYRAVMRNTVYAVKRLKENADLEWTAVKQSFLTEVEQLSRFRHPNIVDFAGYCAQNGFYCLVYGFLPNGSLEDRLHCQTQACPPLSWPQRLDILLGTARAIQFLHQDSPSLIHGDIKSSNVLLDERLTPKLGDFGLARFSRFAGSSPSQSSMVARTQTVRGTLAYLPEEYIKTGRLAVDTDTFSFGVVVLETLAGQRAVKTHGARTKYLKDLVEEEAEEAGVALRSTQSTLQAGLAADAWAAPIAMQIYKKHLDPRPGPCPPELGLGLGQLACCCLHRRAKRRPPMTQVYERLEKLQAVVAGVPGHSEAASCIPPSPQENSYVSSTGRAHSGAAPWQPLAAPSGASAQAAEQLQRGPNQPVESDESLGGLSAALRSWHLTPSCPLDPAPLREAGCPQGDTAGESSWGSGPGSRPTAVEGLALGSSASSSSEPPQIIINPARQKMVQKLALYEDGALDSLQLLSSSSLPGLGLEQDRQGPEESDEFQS

[2] = test system: AML mice (MLL-AF9); assay: MLL-AF9 acute myeloid leukemia (AML) mouse model; assay type: in vivo; conditions: oral gavage 20 mg/kg for 3 days then 10 mg/kg/day for 6 days
Experimental: Generation of a mouse model of acute myeloid leukemia (AML) (FIG. 6) and treatment with the CKIα inhibitor A14 (FIGS. 7, 8 and 9) or A51 (FIGS. 11 and 12). To generate the MLL-AF9 Acute myeloid leukemia (AML) model, bone marrow (BM) cells from 10 week old wild type mouse were extracted and enriched for cKit expressing cells (EasySep #18757) and incubated overnight in RPMI supplemented with 15% FCS L-Glutamine, Pen/Strep (Biological Industries, Israel) and stem cell factor (SCF), IL-3, IL-6 and TPO (Peprotech). The culture was infected with MSCV-MLL-AF9-IRES-GFP retrovirus construct containing supernatant medium for 4 hours, then growth medium was added and infected cells were incubated at 37° C. for additional 24 h. The culture was then injected I.V. into sub lethally irradiated (500 rad) mice. Upon detectable steady increase of GFP expressing cells in the mice peripheral blood (checked by FACS analysis) and rise in leukocyte numbers and immature cells (detected by Wright-Giemsa stained blood films), mice were sacrificed and their BM was transferred (1st BMT) to sublethally irradiated WT hosts. Upon emergence of AML disease mice were sacrificed and 50,000 BM cells were transplanted (2nd BMT) into WT host mice. GFP expressing cells were monitored in the peripheral blood and upon detecting >10% GFP^+ in PB (day 11 after BMT) mice were treated with A14 inhibitor (FIG. 7A). A14 was administered by oral gavage once a day at a dose of 20 mg/kg for 3 days followed by 10 mg/kg/day for 6 more days. The inhibitor was dissolved in 1% methyl cellulose with 0.1% Tween 80 and 0.2% Poly-ethylene glycol (Vehicle). Control mice were treated with the vehicle only. Mice were monitored daily for cachexia, lethargy, and ruff coats, and moribund mice were sacrificed. For a single dose experiment (FIG. 11A) A51 was administered by oral gavage at a single dose of 20 mg/kg and mice were sacrificed 16 hours following treatment.
Complete blood counts. Peripheral venous blood was obtained from the mouse facial vein using standard techniques and analyzed using the auto hematology analyzer BC-2800 (Mindray) per manufacturer's instructions.
Single-dose treatment effect of a CKI inhibitor in AML mice and PD-L1 expression. AML mice were prepared by inoculating MLL-AF9 oncogene-transduced bone marrow cells to C57/BL6 mice. MLL-AF9 fusion represents one of a poor prognosis human AML induced by chromosomal translocation. 30 days after leukemia inoculation, the recipient mice have high white blood cells (WBC) counts (×10 higher than a normal mouse), and harbor >95% leukemia blasts in the bone marrow and 50% of the peripheral WBC in these mice are AML blasts. These mice have splenomegaly and their bones are pale and fragile due to the acute leukemia (FIG. 12).

[3] = test system: CML blast crisis mice; assay: CML blast crisis mouse model (BCR-ABL); assay type: in vivo; conditions: oral 10 mg/kg once a day, day 9
Experimental: Generation of a mouse model of CML blast crisis and inhibitor studies in this model. To generate the BCR-ABL-inducible chronic myeloid leukemia (CML) model, bone marrow (BM) cells from 10 weeks wild type mouse were extracted and enriched for cKit expressing cells (EasySep #18757) and incubated overnight at 37° C. in RPMI growth medium supplemented with 15% FCS, L-Glutamine, Pen/Strep (Biological Industries, Israel) and stem cell factor (SCF), IL-3, IL-6 and TPO (Peprotcch). The culture was then infected with p210BCR-ABL-IRES-GFP retrovirus construct containing supernatant medium for 4 hours, then growth medium was added and infected cells were incubated at 37° C. for additional 24 h. […] Upon observing a fast steady increase of GFP-expressing cells in the peripheral blood of inoculated mice (by FACS) and rising numbers of leukocyte and immature cells (detected by Wright-Giemsa stained blood films), mice were sacrificed and their BM cells were transferred to new sublethally irradiated WT hosts; each such transfer was termed disease generation. […] Blast crisis development was readily detectable by a highly abnormal number of blast cells, more than 30% of white blood cells (WBC) in the peripheral blood (PB), and short time intervals between transfers. […] Mice were monitored daily for cachexia, weight loss, lethargy, and ruff coats, and moribund mice were sacrificed upon moribund. […]

[4] = test system: bone marrow cells isolated from CML blast crisis mice; assay: Ex vivo inhibitor effects on bone marrow cells from CML blast crisis mice; assay type: cell-based, mouse; conditions: 8 hours
Experimental: Ex vivo inhibitor effects (FIGS. 2A and 13A-E). Freshly isolated BM from AML (13A-E) or CML blast crisis (2A) carrying mice were grown in RPMI supplemented with 15% FCS, L-Glutamine, Pen/Strep, Hepes, Sodium Pyruvate and non-essential amino acids (Biological Industries, Israel). CKI inhibitors (A14, A51, A75 or A86) were dissolved in DMSO and added to the tissue culture medium at the indicated concentrations; control cultures were treated with DMSO only. Several hours following treatment (as indicated in each experiment), cells were harvested and counted manually using a camera and standard inverted light microscope. Dead cells were excluded using Trypan Blue (Sigma). AnnexinV-PE (MBL), 7AAD (Tonbo) and PD-L1 (BioLegend) staining was evaluated by FACS according to manufacturer's recommendation.
FACS analysis. All assays were performed on BD's equipment: FACS caliber, FACS ARIA sorter or LSR II machines. For immunostaining, cells were suspended in a 1% BSA/PBS buffer with […]. Cells were then analyzed by using Annexin V PE Apootosis Detection Kit (eBioscience), 7-AAD (TONBO biosciences) and PE anti-mouse CD274 (B7-H1, PD-L1) antibody (clone 10F.9G2, BioLegend); Assays were performed according to the manufacturer's instruction. Monoclonal antibodies specific for CD16 and CD32 (Miltenyi Biotec) were used for blockade of Fc receptors before staining.

Kd [1]: 11 nM
Structure (SMILES): Cn1ncc(-c2ccnc(N[C@H]3CC[C@H](N)CC3)n2)c1CC1CC1 [Compound A14, (1R, 4R)—N^1-(4-(5-(cyclopropylmethyl)-1-methyl-1H-pyrazol-4-yl)pyrimidin-2-yl)cyclohexane-1,4-diamine]
progression of AML, GFP+ leukocytes in peripheral blood (in words) [2]: inhibitory effect
leukemia cell burden in the peripheral blood and bone marrow (in words) [3]: significantly reduces the leukemia cell burden
apoptosis of bone marrow cells (Annexin5+/7AAD−) (in words) ([4]; dose dependent): induces apoptosis
total death (7AAD+) cells (in words) ([4]; dose dependent): increased percentage of total death (7AAD+) cells
leukemic cell number (in words) ([4]; dose response): dramatic reduction of the leukemic cell number
